Consider two compounds from US10702465B2, “Oral care formulation and method for the removal of tartar and plaque from teeth” (priority 2015, dated 2020).

The structures appear in SMILES notation. “Also recorded” adds a separate entry of the source.

For data set [1] the following is noted: background statement; cited from earlier work.
The conditions of data set [2]: 24 hour period, 100% and 50% aqueous concentrations; cited from earlier work.
Data set [3] in a line: Centrifuge studies of colloidal fragmentation of tartar. It counts as in vivo, human. The conditions noted are these: each agent alone. An excerpt:
Together DMI and chlorine dioxide fragment the insoluble glucan and polypeptide matrix which hold tartar together. […] Not to be held to any specific mechanism of action, it would appear that the primary role of chlorine dioxide is to break polypeptide linkages and protein polyol linkages. But this ability alone is insufficient for tartar fragmentation. The insoluble glucan matrix also appears to provide much of the needed glue to keep the tartar intact. Dimethyl isosorbide appears to enter the cracks within the insoluble glucan structure and splay out the glucan structure which in turn promotes the entry of water to re-hydrate the normally insoluble glucan and destabilize and glucan/biofilm matrix and fragment the tartar structure. Evidence for this rehydration and fragmentation mechanism is provided in the following two studies.
In the first study the subject's teeth were flossed with Reach floss, then flossed with a Waterpik water flosser. After the water flossing the water was removed from the mouth. 3 ml of distilled water was added to the mouth and the teeth were brushed with only water for 2 minutes. After the 2 minutes brushing cycle, the water was expelled into a funnel into a centrifuge tube. The subject's teeth were again flossed with a water flosser and then procedure “A” was followed three more times for a total of four 2 minute brushing cycles. […]

The next data set relates to Streptococcus mutans. The conditions noted are these: high concentrations; cited from earlier work.
A short description of data set [4]: Tartar removal trials by flossing and brushing, intraoral photographs (Example 5). The data set is classed as in vivo, human. The settings on record: with chlorine dioxide. An excerpt: All photographs in this example were taken by a professional oral hygienist using a Schick intraoral digital camera.
In other unsuccessful trials dimethyl isosorbide was mixed with numerous common tartar reducing toothpastes. The following picture is typical the failed result of six months of flossing with Reach® waxed floss and brushing twice per day with these various tartar reducing toothpastes with a Philips Sonicare® toothbrush for two minutes. The DMI concentration in each case was 7.1% (w).
The white spots present in FIGS. 15 and 17 are from enamel erosion from previous years of heavy tartar presence and attack of the enamel by bacteria.
In a separate study, 5% (w) DMI was mixed with 0.0094% (w) chlorine dioxide in of water [94.5% (w)]. After flossing the DMI-chlorine dioxide-water mixture was transferred to the mouth of the subject and the subject brushed the teeth for 2 minutes with Philips Sonicare®. After 6 weeks of flossing and brushing twice per day with the DMI-chlorine dioxide-water mixture, the photograph of FIG. 16 was taken.
After the picture of FIG. 16 was taken the trial formulation was changed from 5% (w) to 15% DMI 0.0085% (w) chlorine dioxide in water [84.9% (w)]. This new formulation was used for 8 weeks with the same flossing and brushing regimen used in the first 6 weeks. […]

Data set [5] is described as follows: Tolerability of chlorine dioxide concentrations in use.

As for `CO[C@H]1CO[C@H]2[C@@H]1OC[C@H]2OC` [DMIS, dimethylisosorbide], the “removal of tartar from teeth” value in data set [1] is “not effective at removing tartar from subjects' teeth in vivo”. The “dissolution of collected dental tartar” value in data set [2] was “slowly dissolved”. Also, the “ability to fragment the tartar matrix” value in data set [3] (listed as DMI) was “Neither chlorine dioxide nor DMI by themselves show the ability to fragment the tartar matrix; also recorded: Neither chlorine dioxide nor DMI alone show the ability to fragment this matrix; also recorded: insufficient to allow DMI alone to rehydrate and fragment the tartar matrix”. For the same compound, in the data set on Streptococcus mutans, the antibacterial properties result is reported as “weak antibacterial at high concentrations”. For the same compound, in data set [4] (DMI levels above 10% (w)), the “removal of preexisting tartar” value is listed as “removed fairly rapidly”. In addition, the “level of DMI at which no tartar is reported” value in data set [4] (light tartar producers) is on record as “around 5% (w) or 8% (w)”.

As for `[O][Cl+][O-]` [chlorine dioxide], the problems in use result in data set [5] (chlorine dioxide at 0.01%) is listed as “no reported problems”; in data set [5] (increased concentrations of chlorine dioxide (above 0.01%)) it was “no problems”. Moreover, the “removal of tartar from teeth” value in data set [1] is “ineffective in removing tartar”. Besides, in data set [3], the “ability to fragment the tartar matrix” value was “Neither chlorine dioxide nor DMI by themselves show the ability to fragment the tartar matrix; also recorded: Neither chlorine dioxide nor DMI alone show the ability to fragment this matrix”.
